Consider six compounds from ChEMBL document CHEMBL6078663, “Cyclopeptide Avellanins D-O with Antimalarial Activity from the Mariana Trench Anemone-Derived Hamigera ingelheimensis MSC5” (J Nat Prod, 2024).

The structures appear in SMILES notation. A value given as a limit tells only on which side of the number the result lay.

In general, IC50 refers to the concentration that inhibits the measured activity by half. A lower IC50 goes with inhibition by little substance.

The test concerns Plasmodium falciparum. The test can be described thus: Antimalarial activity against synchronous ring-stage Plasmodium falciparum 3D7 infected in erythrocytes incubated for 48 hrs by fluorescence based method. The conditions noted are these: 3D7, Erythrocyte. It counts as functional, organism-based.
`C[C@H]1NC(=O)[C@@H](Cc2ccccc2)N(C)C(=O)[C@@H]2CCCN2C(=O)c2ccccc2NC(=O)[C@H](Cc2ccccc2)NC1=O`: 9.4 µM corresponded to half-maximal inhibition (IC50).

In the case of `C[C@H]1NC(=O)[C@@H](Cc2ccccc2)N(C)C(=O)[C@@H]2CCCN2C(=O)c2ccccc2NC(=O)[C@H](Cc2ccc(O)c(Cl)c2)NC1=O`, the IC50 worked out at 0.19 µM.

For the compound `CN1C(=O)[C@@H]2CCCN2C(=O)c2ccccc2NC(=O)[C@H](Cc2ccccc2)NC(=O)CNC(=O)[C@H]1Cc1ccccc1`, the IC50 is 3 µM.

`C[C@H]1NC(=O)[C@@H](Cc2ccccc2)N(C)C(=O)[C@@H]2CCCN2C(=O)c2ccccc2NC(=O)[C@H](CCO)NC1=O`: the IC50 is > 50 µM.

As to `CN1C(=O)[C@@H]2CCCN2C(=O)c2ccccc2NC(=O)[C@H](Cc2ccccc2)NC(=O)[C@@H](CO)NC(=O)[C@H]1Cc1ccccc1`, the IC50 came to 16 µM.

In the case of `C[C@H]1NC(=O)[C@@H](Cc2ccccc2)N(C)C(=O)[C@@H]2CCCN2C(=O)c2ccccc2NC(=O)[C@H](Cc2ccc(O)cc2)NC1=O`, the IC50 amounted to 10 µM.
